Tests used:
C. albicans ATCC 24433 = assay: Checkerboard MIC assay for FICI; format: cell-based, Candida albicans
Excerpt: (§1) The following assay was used to determine the minimum inhibitory concentration (MIC) and fractional inhibitory concentration index (FICI) for combinations of antifungal agents and antibacterial agents. This assay and methods for calculating FICI are well known in the art. See, for example, Eliopoulos, E. G. and R. Moellering, Jr. “Antimicrobial Combinations” in Antibiotics in Laboratory Medicine, edited by V. Lorian, 4th Ed., Williams & Wilkins, Baltimore, Md., pp. 330-396 (1996); Shalit et al., Antimicrobial Agents and Chemotherapy 47(4):1416-1418 (2003); or Afeltra et al., Antimicrobial Agents and Chemotherapy 46(10):3323-3326 (2002).
(§2) Using a checkerboard method, a 2-fold dilution 100× final concentration master plate was prepared using a 96-well U-shape microtiter plate and an appropriate solvent. In the “checkerboard” method, a microtiter plate is divided into “columns” in which each well in the column contains the same amount of an antifungal agent (Compound A) being diluted along the x-axis, and “rows” in which each well in the row contains the same amount of a glycopeptide antibacterial agent (Compound B) being diluted on the γ-axis. Also included is a row (or column) for Compound A or B alone. The dilutions used in the checkerboard are exponential (by powers of two). The result is that each well in the microtiter plate contains a unique concentration of the two compounds being tested.
(§3) A matrix 2× final concentration was performed by transferring 30 μL of 100× Compound A and Compound B into a 1,440 μL RPMI in deep wells (one deep well per drug combination). After mixing, 100 μL of 2× drug combinations were distributed into 96-well microtiter plates. Compound A was diluted from Column 1 starting at 1,600 μg/mL to Column 11 (1.6 μg/mL). Wells in Column 1 contained a final concentration (after inoculum was added) of 16 μg/mL of Compound A; wells in Column 2 contained a final concentration of 8 μg/mL of Compound A; wells in Column 3 contained a final concentration of 4 μg/mL of Compound A; etc. Compound A was not added to Column 12, so Column 12 contained only Compound B.
(§4) Compound B was diluted from row A starting at 6,400 μg/mL down to row G (100 μg/mL). Wells in Row A contained a final concentration of 64 μg/mL of Compound B; Row B contained a final concentration of 32 μg/mL of Compound B; Row C contained a final concentration of 16 μg/mL of Compound B; etc. Compound B was not added to Row H, so Row H only contained Compound A.
(§5) In most cases, MIC of the glycopeptide antibacterial compound alone was >64 μg/mL. In order to get an accurate measurement, a standard MIC assay using NCCLS protocols was performed with an extended concentration range of from 256 μg/mL to 0.25 μg/mL. […]

[1] = test system: C. parapsilosis ATCC 22019; assay: Checkerboard MIC assay for FICI; format: cell-based, Candida parapsilosis
Excerpt: as §1, §2, §3, §4, §5

C. tropicalis ATCC 750 = assay: Checkerboard MIC assay for FICI; format: cell-based, Candida tropicalis
Excerpt: as §1, §2, §3, §4, §5

C. krusei ATCC 32672 = assay: Checkerboard MIC assay for FICI; format: cell-based, Candida krusei
Excerpt: as §1, §2, §3, §4, §5

C. glabrata ATCC 200918 = assay: Checkerboard MIC assay for FICI; format: cell-based, Candida glabrata
Excerpt: as §1, §2, §3, §4, §5

C. neoformans ATCC 56991 = assay: Checkerboard MIC assay for FICI; format: cell-based, Cryptococcus neoformans
Excerpt: as §1
(§6) Using a checkerboard method, a 2-fold dilution 100× final concentration master plate was prepared using a 96-well U-shape microtiter plate and an appropriate solvent. In the “checkerboard” method, a microtiter plate is divided into “columns” in which each well in the column contains the same amount of an antifungal agent (Compound A) being diluted along the x-axis, and “rows” in which each well in the row contains the same amount of a glycopeptide antibacterial agent (Compound B) being diluted on the γ-axis. Also included is a row (or column) for Compound A or B alone. The dilutions used in the checkerboard are exponential (by powers of two). […]

A. fumigatus ATCC 14110 = assay: Checkerboard MIC assay for FICI; format: cell-based, Aspergillus fumigatus; settings: combination with caspofungin
Excerpt: as §1, §6

A. terreus ATCC 46941 = assay: Checkerboard MIC assay for FICI; format: cell-based; settings: combination with caspofungin
Excerpt: as §1, §6

[2] = test system: S. prolificans ATCC 200543; assay: Checkerboard MIC assay for FICI; format: cell-based; settings: combination with caspofungin
Excerpt: as §1, §6

A. flavus ATCC 64025 = assay: Checkerboard MIC assay for FICI; format: cell-based, Aspergillus flavus; settings: combination with caspofungin
Excerpt: as §1, §6

[3] = test system: F. moniliforme ATCC 38159; assay: Checkerboard MIC assay for FICI; format: cell-based, Fusarium moniliforme; settings: combination with caspofungin
Excerpt: as §1, §6

P. boydii ATCC 38283 = assay: Checkerboard MIC assay for FICI; format: cell-based, Pseudallescheria boydii; settings: combination with caspofungin
Excerpt: as §1, §6

G. candidum ATCC 62231 = assay: Checkerboard MIC assay for FICI; format: cell-based, Geotricium candidum; settings: combination with caspofungin
Excerpt: as §1, §6

[4] = test system: M. circinelloides ATCC 26759; assay: Checkerboard MIC assay for FICI; format: cell-based, Mucor circinelloides; settings: combination with caspofungin
Excerpt: as §1, §6

[5] = test system: R. miscrosporus ATCC 14050; assay: Checkerboard MIC assay for FICI; format: cell-based, Rhizopus microsporus; settings: combination with caspofungin
Excerpt: as §1, §6

various strains of fungi = assay: Assay for determining MIC and FICI, summary statements over strains; format: cell-based
Excerpt: as §1
FICI values are typically evaluated using the following criteria:
Using a checkerboard method, a 2-fold dilution 100× final concentration master plate was prepared using a 96-well U-shape microtiter plate and an appropriate solvent. In the “checkerboard” method, a microtiter plate is divided into “columns” in which each well in the column contains the same amount of an antifungal agent (Compound A) being diluted along the x-axis, and “rows” in which each well in the row contains the same amount of a glycopeptide antibacterial agent (Compound B) being diluted on the γ-axis. […]
The calculated value for the FICI of the combined test compounds was compared to the following standards in certain embodiments: […]

SMILES | FICI (C. albicans ATCC 24433; combination with caspofungin) | FICI ([1]; combination with caspofungin) | FICI (C. tropicalis ATCC 750; combination with caspofungin) | FICI (C. krusei ATCC 32672; combination with caspofungin) | FICI (C. glabrata ATCC 200918; combination with caspofungin) | FICI (C. albicans ATCC 24433; combination with Compound 1) | FICI ([1]; combination with Compound 1) | FICI (C. tropicalis ATCC 750; combination with Compound 1) | FICI (C. krusei ATCC 32672; combination with Compound 1) | FICI (C. glabrata ATCC 200918; combination with Compound 1) | other results
CCCCCCCCCCNCCN[C@@]1(C)C[C@H](O[C@H]2[C@H](Oc3c4cc5cc3Oc3ccc(cc3Cl)[C@@H](O)[C@@H](NC(=O)[C@@H](CC(C)C)NC)C(=O)N[C@@H](CC(N)=O)C(=O)N[C@H]5C(=O)N[C@H]3C(=O)N[C@H](C(=O)N[C@H](C(=O)O)c5cc(O)c(CNCP(=O)(O)O)c(O)c5-c5cc3ccc5O)[C@H](O)c3ccc(c(Cl)c3)O4)O[C@H](CO)[C@@H](O)[C@@H]2O)O[C@@H](C)[C@H]1O [Compound 1, telavancin] | 0.27 | 0.38 | 0.26 | 0.31 | 0.28 | – | – | – | – | – | FICI (C. neoformans ATCC 56991; combination with caspofungin, C. neoformans ATCC 56991, checkerboard): 0.75; FICI (A. fumigatus ATCC 14110): 0.28; FICI (A. terreus ATCC 46941): 0.31; FICI [2]: 1.25; FICI (A. flavus ATCC 64025): 0.16; FICI [3]: 2; FICI (P. boydii ATCC 38283): 0.31; FICI (G. candidum ATCC 62231): 0.31; FICI [4]: 2; FICI [5]: 2; effect of the combination with caspofungin (various strains of fungi; all yeast strains tested, except C. neoformans, FICI ≦ 0.5 = synergistic): synergistic
OC(Cn1cncn1)(Cn1cncn1)c1ccc(F)cc1F [Fluconazole] | – | – | – | – | – | 2.00 | 2.00 | 2.00 | 2.00 | 2.00 | –
Clc1ccc(COC(Cn2ccnc2)c2ccc(Cl)cc2Cl)c(Cl)c1 (stereo not drawn) [Miconazole] | – | – | – | – | – | 2.00 | 2.00 | 2.00 | – | – | –
CN[C@H](CC(C)C)C(=O)N[C@H]1C(=O)N[C@@H](CC(N)=O)C(=O)N[C@H]2C(=O)N[C@H]3C(=O)N[C@H](C(=O)N[C@H](C(=O)O)c4cc(O)cc(O)c4-c4cc3ccc4O)[C@H](O)c3ccc(c(Cl)c3)Oc3cc2cc(c3O[C@@H]2O[C@H](CO)[C@@H](O)[C@H](O)[C@H]2O[C@H]2C[C@](C)(N)[C@H](O)[C@H](C)O2)Oc2ccc(cc2Cl)[C@H]1O [Vancomycin] | 2.00 | 2.00 | 2.00 | 2.00 | 2.00 | – | – | – | – | – | effect of the combination with caspofungin (various strains of fungi; strains of Table 1, FICI criteria of b187): not synergistic or additive
C[C@@H](c1ncncc1F)[C@](O)(Cn1cncn1)c1ccc(F)cc1F [Voriconazole, voriconazole] | – | – | – | – | – | – | – | – | 1.13 | 1.13 | –
CC[C@H](C)C[C@H](C)CCCCCCCCC(=O)N[C@H]1C[C@@H](O)[C@@H](NCCN)NC(=O)[C@@H]2[C@@H](O)CCN2C(=O)[C@H]([C@H](O)CCN)NC(=O)[C@H]([C@H](O)[C@@H](O)c2ccc(O)cc2)NC(=O)[C@@H]2C[C@@H](O)CN2C(=O)[C@H]([C@@H](C)O)NC1=O [caspofungin] | – | – | – | – | – | – | – | – | – | – | activity of caspofungin against C. neoformans (C. neoformans ATCC 56991; caspofungin alone): no activity

— patent publication US7902148B2, “Use of an echinocandin antifungal agent in combination with a glycopeptide antibacterial agent” (Theravance, Inc., priority 2003, dated 2011)
